# Reference: the supplement of paper PMC11208160
# Assay: recombinant barcode read abundance after kanamycin selection (control-corrected) (log10(CPM+1)); higher = more efficient recombination; sequences stand for … in AGTGCAGAGAAAATCGGCCAGTTTTCTCTGCCTGCAGTCCGCATGCCGT…AGATTTATGCAGCGGACTGCCTTTCTCCCAAAGTGATAAACCGGACAGTATCATGGACCGGTTTTCCCGGTAATCCGTATTTGCAAGGTTGGTTTCACT; site = the 11-nt target
# Procedure, shortened: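 In a pooled screen in E. coli, targets were paired with target-binding loops of the IS621 bridge RNA. Each oligo carried a promoter, a target, a barcode and the first 104 bridge RNA bases driven by J23119, and was Gibson-cloned into a vector holding the remaining 73 bp and a T7-inducible recombinase before co-electroporation with a donor plasmid. Duplicate platings went onto chloramphenicol/ampicillin LB agar as the control or onto chloramphenicol/ampicillin/kanamycin with 0.1 mM IPTG. Recombination efficiency is the averaged, control-corrected count per million of barcodes at recombinant junctions, given as log10(CPM+1).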
# 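Further: IS621 recombinase and bridge RNA in Escherichia coli cells.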
row,Sequence,recombinant barcode read abundance (log10)
1,CTTCGAGCTTGGGTTCTAACCTGTTGCGG (site CTTCGAGCTCG),0.027
2,CTTCGAGCTTGGGTTCTAACCTGTTGCGG (site CTTCGAGCTCT),0.658
3,CTTCGTACTTGGGTTCTAACCTGTTGCCA (site CTCCGTACTCG),0.126
4,CTTCGTACTTGGGTTCTAACCTGTTGCCA (site CTTCGTACTTG),0.213
5,CTTCGTCCTTGGGTTCTAACCTGTTGCCT (site CTTCGTCCTAA),0.132
6,CTTCGTCCTTGGGTTCTAACCTGTTGCCT (site CTTCGTCCTAC),0.0309
7,CTTCGTCCTTGGGTTCTAACCTGTTGCCT (site CTTCGTCCTAG),0.804
8,CTTCGTCCTTGGGTTCTAACCTGTTGCCT (site CTTCGTCCTAT),0.0799
9,CTTCGTCCTTGGGTTCTAACCTGTTGCTT (site CTTCGTCCTAA),0.206
10,CTTCGTCCTTGGGTTCTAACCTGTTGCTT (site CTTCGTCCTAC),0.68
11,CTTCGTCCTTGGGTTCTAACCTGTTGCTT (site CTTCGTCCTAG),0.0453
12,CTTCGTCCTTGGGTTCTAACCTGTTGCTT (site CTTCGTCCTAT),0.541
13,CTTGACACTTGGGTTCTAACCTGTTGCCT (site CTAGACACTAG),1.2
14,CTTGACACTTGGGTTCTAACCTGTTGCCT (site CTCGACACTAG),0.401
15,CTTGACACTTGGGTTCTAACCTGTTGCCT (site CTGGACACTAG),0.236
16,CTTGACACTTGGGTTCTAACCTGTTGCCT (site CTTGACACTAG),2.07
17,CTTGGAGCTTGGGTTCTAACCTGTTGCCT (site CTTGGAACTAG),0.365
18,CTTGGAGCTTGGGTTCTAACCTGTTGCCT (site CTTGGACCTAG),0.247

row,Sequence,recombinant barcode read abundance (log10)
1,CTTGGAGCTTGGGTTCTAACCTGTTGCCT (site CTTGGAGCTAG),1.61
2,CTTGGAGCTTGGGTTCTAACCTGTTGCCT (site CTTGGATCTAG),0.145
3,CTTGGGTCTTGGGTTCTAACCTGTTGCAT (site CTTGGGTCTAT),2.72
4,CTTGGGTCTTGGGTTCTAACCTGTTGCAT (site TCCCATACTTC),0.0573
5,CTTGGTTCTTGGGTTCTAACCTGTTGCTT (site CTGGGTCCTAA),0.0304
6,CTTGGTTCTTGGGTTCTAACCTGTTGCTT (site CTTGGTTCTAA),0.809
7,GAAAACACTTGGGTTCTAACCTGTTGCCT (site GAAAACACTAG),1.18
8,GAAAACACTTGGGTTCTAACCTGTTGCCT (site GAAGAGACTAG),0.0433
9,GAAAAGGCTTGGGTTCTAACCTGTTGCCT (site GAAAAGGCTAG),0.804
10,GAAAAGGCTTGGGTTCTAACCTGTTGCCT (site GAAACGGCTAG),0.105
11,GAAAAGGCTTGGGTTCTAACCTGTTGCCT (site GAAAGGGCTAG),0.0324
12,GAAAAGGCTTGGGTTCTAACCTGTTGCCT (site GAAATGGCTAG),0.206
13,GAAACGTCTTGGGTTCTAACCTGTTGCCT (site GAAACGTCTAG),1.65
14,GAAACGTCTTGGGTTCTAACCTGTTGCCT (site GACAAGTCTAG),0.0765
15,GAAACTCCTTGGGTTCTAACCTGTTGCCT (site GAAAATCCTAG),0.13
16,GAAACTCCTTGGGTTCTAACCTGTTGCCT (site GAAACTCCTAG),0.352
17,GAAACTCCTTGGGTTCTAACCTGTTGCCT (site GAAAGTCCTAG),0.235
18,GAAACTCCTTGGGTTCTAACCTGTTGCCT (site GAAATTCCTAG),0.0462
